We go through one molecule from patent US5770380A (priority 1996, dated 1998).

Molecules are shown by their SMILES.

For the assay, the target named is Horse Cytochrome c (Equus caballus, UniProt P00004). As to the kind of experiment: Micro calorimetry titration of Cytochrome c. The assay is classed as binding. As to conditions: micro calorimetry titration (FIG. 9); read-out: association constant (converted). The source says: FIG. 9 illustrates a micro calorimetry titration of Cytochrome c with a preferred embodiment of the present invention.
Horse Cytochrome c is an electron-transferring protein with a heme prosthetic group. The size of this protein is 12,384 Dalton and the surface is highly positively charged with lysine and arginine residues. For the X-ray crystal structure of Cytochrome c, see: Bushnell, G. W.; Louie, G. D.; Brayer, G. D. J. Mol. Biol. 1990, 214, 585. NMR titration of Cytochrome c with a preferred embodiment of the invention, designated 1 below, was performed under the condition described in FIG. 8 and two of the hyperfine region protons from heme in Cytochrome c, heme 8-CH3 and heme 3-CH3, were followed. […] The direction and the size of shifts are about the same as those of the titration between Cytochrome c and Cytochrome c peroxydase and peak broadening was also observed in the peroxydase titration. For NMR titration of cytochrome c and cytochrome-c peroxydase, see: Satterlee, J. D.; Moench, S. J.; Erman, J. E. Biochemica et Boiphysica Acta 1987, 912, 87-97. FIG. 8 is consistent with 1:1 binding. [drawing 1] Micro calorimetry titration of Cytochrome c with 1 was also performed (see FIG. 9). The association constant was calculated as 136000M^-1 therefore ΔG=-7.0 kcal/mol. As the enthalpy of the binding event is simulated as -5.6 kcal/mol, the entropy portion should be -1.4 kcal/mol. […]

Sequence of Horse Cytochrome c (P00004 whole entry): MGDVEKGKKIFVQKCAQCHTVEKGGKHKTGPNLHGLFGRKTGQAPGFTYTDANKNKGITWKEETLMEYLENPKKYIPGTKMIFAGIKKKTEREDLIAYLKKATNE

Consider `CCCCOc1c2cc(C(=O)Nc3cc4cc(c3)C(=O)NCC(=O)N[C@@H](CC(=O)O)C(=O)NCC(=O)N[C@@H](CC(=O)O)C(=O)NC4)cc1Cc1cc(C(=O)Nc3cc4cc(c3)C(=O)NCC(=O)N[C@@H](CC(=O)O)C(=O)NCC(=O)N[C@@H](CC(=O)O)C(=O)NC4)cc(c1OCCCC)Cc1cc(C(=O)Nc3cc4cc(c3)C(=O)NCC(=O)N[C@@H](CC(=O)O)C(=O)NCC(=O)N[C@@H](CC(=O)O)C(=O)NC4)cc(c1OCCCC)Cc1cc(C(=O)Nc3cc4cc(c3)C(=O)NCC(=O)N[C@@H](CC(=O)O)C(=O)NCC(=O)N[C@@H](CC(=O)O)C(=O)NC4)cc(c1OCCCC)C2` [compound 1, Calix[4]arenetetracyclicpeptide1], for which the Kd was 7.35 µM.
